Each block holds one compound with its values, some of them ahead of it.
Columns and labels:
[1] = molecular target: Mitogen-activated protein kinase kinase kinase 14 (Homo sapiens) (UniProt Q99558); test: Selectivity interaction (LanthaScreen Eu Kinase Binding Assay) EUB0001632a MAP3K14; conditions: at 10 µM
[2] = molecular target: Death-associated protein kinase 3 (Homo sapiens) (UniProt O43293); test: Selectivity interaction (KinomeScan (DiscoverX)) EUB0000666a DAPK3; conditions: at 10 µM
[3] = system: Proto-oncogene tyrosine-protein kinase receptor Ret (Homo sapiens), P07949 [V804M]; test: Selectivity interaction (KinomeScan (DiscoverX)) EUB0000311b RET; conditions: at 1 µM
[4] = molecular target: Tyrosine-protein kinase Fer (Homo sapiens) (UniProt P16591); test: Selectivity interaction (SelectScreen profiling (Invitrogen)) EUB0000607a FER; conditions: at 2 µM
Chain of Tyrosine-protein kinase Fer (Homo sapiens) (P16591 whole entry, looked up): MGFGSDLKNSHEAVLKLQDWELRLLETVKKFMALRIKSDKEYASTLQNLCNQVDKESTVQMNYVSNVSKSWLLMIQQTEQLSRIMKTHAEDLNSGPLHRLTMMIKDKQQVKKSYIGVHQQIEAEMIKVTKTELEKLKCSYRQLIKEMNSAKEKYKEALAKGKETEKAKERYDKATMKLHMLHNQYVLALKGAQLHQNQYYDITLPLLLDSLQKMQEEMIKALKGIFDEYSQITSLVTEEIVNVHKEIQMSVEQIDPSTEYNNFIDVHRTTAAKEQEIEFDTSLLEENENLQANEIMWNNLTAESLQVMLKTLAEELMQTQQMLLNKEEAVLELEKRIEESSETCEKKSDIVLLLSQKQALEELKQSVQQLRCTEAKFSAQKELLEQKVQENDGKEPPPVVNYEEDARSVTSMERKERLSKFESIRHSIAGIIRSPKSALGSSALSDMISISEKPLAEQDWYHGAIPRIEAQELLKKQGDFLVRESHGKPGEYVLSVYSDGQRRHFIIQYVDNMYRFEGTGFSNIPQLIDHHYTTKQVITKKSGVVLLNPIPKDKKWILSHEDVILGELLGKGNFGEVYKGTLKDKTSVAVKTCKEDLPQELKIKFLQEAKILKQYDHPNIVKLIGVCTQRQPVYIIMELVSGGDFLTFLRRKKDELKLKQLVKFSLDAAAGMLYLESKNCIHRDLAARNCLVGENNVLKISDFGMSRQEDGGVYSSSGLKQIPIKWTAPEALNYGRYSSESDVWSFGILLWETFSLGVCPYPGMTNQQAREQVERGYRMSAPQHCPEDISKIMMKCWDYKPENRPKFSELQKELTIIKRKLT

[5] = molecular target: T1, Serine/threonine-protein kinase RIO1 (Homo sapiens) (UniProt Q9BRS2); conditions: at 10 µM
T1 sequence (whole entry): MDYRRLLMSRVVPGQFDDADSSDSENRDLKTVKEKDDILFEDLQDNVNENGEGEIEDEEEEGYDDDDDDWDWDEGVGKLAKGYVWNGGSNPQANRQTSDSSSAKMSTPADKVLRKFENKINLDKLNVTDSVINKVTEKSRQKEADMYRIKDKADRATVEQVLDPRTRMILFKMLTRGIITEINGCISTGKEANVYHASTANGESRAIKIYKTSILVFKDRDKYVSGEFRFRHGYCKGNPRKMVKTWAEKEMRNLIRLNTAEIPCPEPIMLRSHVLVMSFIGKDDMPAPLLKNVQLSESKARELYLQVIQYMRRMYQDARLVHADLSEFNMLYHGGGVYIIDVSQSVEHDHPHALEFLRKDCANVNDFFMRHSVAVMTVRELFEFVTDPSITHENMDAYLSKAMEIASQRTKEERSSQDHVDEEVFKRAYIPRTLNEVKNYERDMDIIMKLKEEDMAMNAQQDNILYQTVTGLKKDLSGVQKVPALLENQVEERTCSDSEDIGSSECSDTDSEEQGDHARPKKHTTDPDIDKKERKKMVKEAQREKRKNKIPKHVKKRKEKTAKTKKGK

[6] = molecular target: T2, Dual specificity mitogen-activated protein kinase kinase 5 (Homo sapiens) (UniProt Q13163); test: Selectivity interaction (ActivX KiNativ screen (kinase selectivity in THP-1 cell lysates)) EUB0000639a MAP2K5; assay type: subcellular; conditions: lysate
T2 sequence (whole entry): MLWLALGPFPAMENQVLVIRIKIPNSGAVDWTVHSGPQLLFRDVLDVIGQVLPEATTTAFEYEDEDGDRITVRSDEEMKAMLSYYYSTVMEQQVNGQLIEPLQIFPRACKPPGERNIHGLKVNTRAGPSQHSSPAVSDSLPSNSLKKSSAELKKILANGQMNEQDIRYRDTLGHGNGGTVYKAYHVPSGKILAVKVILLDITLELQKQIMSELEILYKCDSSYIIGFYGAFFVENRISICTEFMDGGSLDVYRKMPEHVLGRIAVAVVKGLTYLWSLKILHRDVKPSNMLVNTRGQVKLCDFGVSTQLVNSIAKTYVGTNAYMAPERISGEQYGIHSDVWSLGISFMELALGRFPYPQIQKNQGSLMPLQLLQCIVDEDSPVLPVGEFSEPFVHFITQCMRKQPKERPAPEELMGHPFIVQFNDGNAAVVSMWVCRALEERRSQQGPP

[7] = molecular target: Protein-tyrosine kinase 2-beta (Homo sapiens) (UniProt Q14289); test: Selectivity interaction (ActivX KiNativ screen (kinase selectivity in THP-1 cell lysates)) EUB0000639a PTK2B; assay type: subcellular; conditions: lysate, at 0.04 µM
[8] = molecular target: Ribosomal protein S6 kinase alpha-3 (Homo sapiens, UniProt P51812); test: Selectivity interaction (ActivX KiNativ screen (kinase selectivity in THP-1 cell lysates)) EUB0000639a RPS6KA3; assay type: subcellular; conditions: lysate, at 1 µM
[9] = molecular target: Tyrosine-protein kinase ABL1 (Homo sapiens, UniProt P00519); test: Selectivity interaction (Kinase panel (enzymatic assay)) EUB0000595a ABL1
[10] = molecular target: TRAF2 and NCK-interacting protein kinase (Homo sapiens) (UniProt Q9UKE5); test: Selectivity interaction (KinomeScan (DiscoverX)) EUB0001079a TNIK; conditions: at 1 µM
[11] = molecular target: Serine/threonine-protein kinase SMG1 (Homo sapiens) (UniProt Q96Q15); test: Selectivity interaction (Kinase panel (KiNativ target engagement assay in Jurkat cells)) EUB0001635a SMG1; assay type: cell-based; conditions: Selectivity number of off-targets 0.0, Selectivity number of targets 233.0, Source Knowledge https://www.sciencedirect.com/science/article/pii/S2451945619300674?via%3Dihub, at 1 µM
Chain of Serine/threonine-protein kinase SMG1 (Homo sapiens) (Q96Q15 whole entry): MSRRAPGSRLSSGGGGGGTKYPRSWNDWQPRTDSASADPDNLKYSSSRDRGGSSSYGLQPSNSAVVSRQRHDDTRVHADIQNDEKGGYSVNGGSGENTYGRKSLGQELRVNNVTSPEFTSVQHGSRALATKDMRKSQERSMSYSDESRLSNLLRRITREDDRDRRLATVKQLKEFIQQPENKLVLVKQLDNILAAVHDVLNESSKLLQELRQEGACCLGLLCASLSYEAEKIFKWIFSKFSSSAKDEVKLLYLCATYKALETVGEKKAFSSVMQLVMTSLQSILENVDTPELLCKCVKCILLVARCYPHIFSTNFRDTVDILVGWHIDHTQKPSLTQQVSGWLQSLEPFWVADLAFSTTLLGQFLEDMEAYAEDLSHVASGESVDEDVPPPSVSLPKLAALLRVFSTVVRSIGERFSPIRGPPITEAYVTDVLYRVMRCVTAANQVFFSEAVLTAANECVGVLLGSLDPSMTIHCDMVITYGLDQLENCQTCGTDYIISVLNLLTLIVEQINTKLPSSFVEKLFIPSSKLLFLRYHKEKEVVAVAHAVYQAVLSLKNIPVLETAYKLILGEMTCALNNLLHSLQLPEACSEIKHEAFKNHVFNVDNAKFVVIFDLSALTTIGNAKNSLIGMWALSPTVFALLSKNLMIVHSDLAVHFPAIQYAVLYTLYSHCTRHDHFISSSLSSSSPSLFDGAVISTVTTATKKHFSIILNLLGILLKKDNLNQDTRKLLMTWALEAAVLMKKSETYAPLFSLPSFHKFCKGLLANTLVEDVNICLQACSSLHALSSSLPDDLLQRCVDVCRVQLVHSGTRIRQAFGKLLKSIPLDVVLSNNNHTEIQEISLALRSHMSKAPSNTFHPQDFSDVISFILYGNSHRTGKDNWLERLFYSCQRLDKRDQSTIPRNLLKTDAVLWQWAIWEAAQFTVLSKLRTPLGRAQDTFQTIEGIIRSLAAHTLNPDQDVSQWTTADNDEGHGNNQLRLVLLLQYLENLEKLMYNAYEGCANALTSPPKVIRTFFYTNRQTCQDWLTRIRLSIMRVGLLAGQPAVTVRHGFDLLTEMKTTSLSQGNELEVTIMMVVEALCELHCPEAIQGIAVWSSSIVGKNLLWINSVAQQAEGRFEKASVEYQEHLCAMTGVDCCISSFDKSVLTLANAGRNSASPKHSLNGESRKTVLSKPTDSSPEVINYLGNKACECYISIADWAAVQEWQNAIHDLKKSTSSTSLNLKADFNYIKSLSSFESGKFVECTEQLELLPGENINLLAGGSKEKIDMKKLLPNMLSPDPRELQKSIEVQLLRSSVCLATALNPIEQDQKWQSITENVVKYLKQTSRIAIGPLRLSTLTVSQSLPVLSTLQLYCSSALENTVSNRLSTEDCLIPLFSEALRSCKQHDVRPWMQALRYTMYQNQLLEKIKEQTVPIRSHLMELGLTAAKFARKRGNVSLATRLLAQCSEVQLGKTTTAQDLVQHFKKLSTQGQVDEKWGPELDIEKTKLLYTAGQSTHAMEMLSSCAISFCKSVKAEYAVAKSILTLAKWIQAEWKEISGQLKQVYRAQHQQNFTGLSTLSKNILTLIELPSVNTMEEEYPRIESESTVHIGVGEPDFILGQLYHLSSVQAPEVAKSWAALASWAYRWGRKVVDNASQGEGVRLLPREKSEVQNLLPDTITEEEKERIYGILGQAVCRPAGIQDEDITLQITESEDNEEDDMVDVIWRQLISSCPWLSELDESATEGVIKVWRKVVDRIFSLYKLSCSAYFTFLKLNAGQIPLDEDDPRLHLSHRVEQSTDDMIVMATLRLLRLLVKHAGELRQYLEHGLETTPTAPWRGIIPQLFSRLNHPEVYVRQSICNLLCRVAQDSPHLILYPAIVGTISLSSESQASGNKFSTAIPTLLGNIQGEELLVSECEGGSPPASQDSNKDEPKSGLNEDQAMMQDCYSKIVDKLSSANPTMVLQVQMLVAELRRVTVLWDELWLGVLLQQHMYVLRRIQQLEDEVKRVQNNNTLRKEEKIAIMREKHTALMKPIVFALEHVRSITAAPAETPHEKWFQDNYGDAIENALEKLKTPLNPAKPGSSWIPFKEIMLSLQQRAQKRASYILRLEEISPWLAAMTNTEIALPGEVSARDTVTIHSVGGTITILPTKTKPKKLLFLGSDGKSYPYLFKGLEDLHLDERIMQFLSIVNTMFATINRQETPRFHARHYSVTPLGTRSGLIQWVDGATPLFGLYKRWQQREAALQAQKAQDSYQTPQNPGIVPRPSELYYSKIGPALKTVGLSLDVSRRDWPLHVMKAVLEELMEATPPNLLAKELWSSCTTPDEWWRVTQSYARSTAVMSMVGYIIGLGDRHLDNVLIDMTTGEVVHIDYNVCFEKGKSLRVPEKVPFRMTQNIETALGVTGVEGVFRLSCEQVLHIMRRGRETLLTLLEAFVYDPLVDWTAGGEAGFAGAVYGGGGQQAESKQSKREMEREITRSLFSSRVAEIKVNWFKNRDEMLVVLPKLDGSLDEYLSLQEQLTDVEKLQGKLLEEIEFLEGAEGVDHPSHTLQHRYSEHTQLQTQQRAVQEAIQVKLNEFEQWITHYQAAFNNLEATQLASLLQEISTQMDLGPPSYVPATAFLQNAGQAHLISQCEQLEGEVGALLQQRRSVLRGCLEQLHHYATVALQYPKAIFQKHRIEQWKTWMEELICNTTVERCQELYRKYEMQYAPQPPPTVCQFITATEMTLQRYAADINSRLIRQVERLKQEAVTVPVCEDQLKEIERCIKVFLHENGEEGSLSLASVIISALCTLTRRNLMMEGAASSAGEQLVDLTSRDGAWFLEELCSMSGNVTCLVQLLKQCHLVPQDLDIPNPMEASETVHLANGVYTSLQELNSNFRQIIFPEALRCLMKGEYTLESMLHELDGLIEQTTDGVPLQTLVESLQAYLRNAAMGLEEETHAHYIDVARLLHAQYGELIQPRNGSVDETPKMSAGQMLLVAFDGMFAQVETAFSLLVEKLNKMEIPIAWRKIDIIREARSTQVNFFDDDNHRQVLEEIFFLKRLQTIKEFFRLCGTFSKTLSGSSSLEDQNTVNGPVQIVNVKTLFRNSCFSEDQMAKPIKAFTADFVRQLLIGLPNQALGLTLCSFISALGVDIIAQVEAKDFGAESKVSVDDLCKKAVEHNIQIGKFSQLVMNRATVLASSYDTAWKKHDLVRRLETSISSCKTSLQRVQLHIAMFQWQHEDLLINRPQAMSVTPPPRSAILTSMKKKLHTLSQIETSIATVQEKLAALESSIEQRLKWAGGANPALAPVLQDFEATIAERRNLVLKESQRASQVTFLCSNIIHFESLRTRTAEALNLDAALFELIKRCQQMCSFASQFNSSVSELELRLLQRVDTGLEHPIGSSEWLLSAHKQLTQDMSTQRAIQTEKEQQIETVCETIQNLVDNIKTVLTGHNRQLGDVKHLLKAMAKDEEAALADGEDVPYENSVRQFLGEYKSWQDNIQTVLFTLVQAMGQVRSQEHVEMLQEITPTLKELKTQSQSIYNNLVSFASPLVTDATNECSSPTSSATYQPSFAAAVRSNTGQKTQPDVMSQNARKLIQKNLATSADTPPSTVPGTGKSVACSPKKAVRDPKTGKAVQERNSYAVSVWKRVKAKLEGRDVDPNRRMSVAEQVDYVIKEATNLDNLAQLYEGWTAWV

[12] = molecular target: T3, Serine/threonine-protein kinase DCLK1 (Homo sapiens) (UniProt O15075); test: Selectivity interaction (KinomeScan (DiscoverX)) EUB0001619a DCLK1; conditions: at 1 µM
T3 sequence (whole entry): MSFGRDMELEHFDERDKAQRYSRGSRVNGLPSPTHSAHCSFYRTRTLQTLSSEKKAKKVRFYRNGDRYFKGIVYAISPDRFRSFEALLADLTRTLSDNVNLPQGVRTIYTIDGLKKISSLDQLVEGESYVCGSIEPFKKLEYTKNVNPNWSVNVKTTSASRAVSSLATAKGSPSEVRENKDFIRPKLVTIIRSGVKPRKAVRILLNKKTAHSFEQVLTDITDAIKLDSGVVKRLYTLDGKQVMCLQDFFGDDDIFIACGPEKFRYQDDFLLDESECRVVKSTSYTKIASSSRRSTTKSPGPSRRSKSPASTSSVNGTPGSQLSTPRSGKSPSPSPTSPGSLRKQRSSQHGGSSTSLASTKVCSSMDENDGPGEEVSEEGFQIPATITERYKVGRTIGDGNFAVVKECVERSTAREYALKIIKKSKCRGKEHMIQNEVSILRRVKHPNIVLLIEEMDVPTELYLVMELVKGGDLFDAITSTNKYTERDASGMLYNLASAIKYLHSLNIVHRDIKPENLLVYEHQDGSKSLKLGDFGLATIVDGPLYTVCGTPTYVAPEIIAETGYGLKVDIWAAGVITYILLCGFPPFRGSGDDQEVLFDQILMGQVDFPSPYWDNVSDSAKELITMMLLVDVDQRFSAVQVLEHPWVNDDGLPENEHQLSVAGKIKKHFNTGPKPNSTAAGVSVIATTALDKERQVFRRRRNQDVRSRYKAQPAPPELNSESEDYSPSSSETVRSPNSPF

[13] = molecular target: Vascular endothelial growth factor receptor 1 (Homo sapiens) (UniProt P17948); test: Selectivity interaction (KinomeScan (DiscoverX)) EUB0001619a FLT1; conditions: at 1 µM

Chain of Death-associated protein kinase 3 (Homo sapiens) (O43293 whole entry, looked up): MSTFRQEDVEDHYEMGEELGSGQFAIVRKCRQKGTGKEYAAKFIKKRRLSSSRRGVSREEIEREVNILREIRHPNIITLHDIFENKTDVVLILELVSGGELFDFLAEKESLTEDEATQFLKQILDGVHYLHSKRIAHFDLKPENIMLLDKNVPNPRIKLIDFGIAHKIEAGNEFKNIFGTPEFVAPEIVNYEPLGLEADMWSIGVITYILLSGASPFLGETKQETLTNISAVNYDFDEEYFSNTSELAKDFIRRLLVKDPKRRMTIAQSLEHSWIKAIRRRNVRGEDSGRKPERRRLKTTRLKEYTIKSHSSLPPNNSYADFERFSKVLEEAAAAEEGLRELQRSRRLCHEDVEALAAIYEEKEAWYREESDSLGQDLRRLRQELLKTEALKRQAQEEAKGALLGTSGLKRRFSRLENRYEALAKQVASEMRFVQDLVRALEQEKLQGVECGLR

- % of inhibition [1]: -10.4%
Compound: Cn1cc(-n2cnc3c(NCc4nc5cc(Cl)c(Cl)cc5[nH]4)nc(N4CCOCC4)nc32)cn1

Compound: O=C(NOC[C@H](O)CO)c1ccc(F)c(F)c1Nc1ccc(I)cc1F
- % of control [2]: 100%

- % of control [3]: 11%
Compound: CCc1ccccc1C(=O)Nc1n[nH]c2c(C)c(F)c(C3C(C#N)=C(C)N(C)C(C)=C3C#N)cc12 [BAY-3827]

Compound: CNC(=O)Nc1ccc(-c2nc(N3CC4CCC(C3)O4)c3cnn(C4CCC5(CC4)OCCO5)c3n2)cc1
- % of inhibition [4]: 5%

- % of control [5]: 100%
Compound: CCN(CC)CCCCNc1ncc2cc(-c3cc(OC)cc(OC)c3)c(NC(=O)NC(C)(C)C)nc2n1

- % of inhibition ([6]; at 0.01 µM): 4.3%
- % of inhibition ([6]; at 0.04 µM): -11.1%
- % of inhibition ([6]; at 0.2 µM): -18.3%
- % of inhibition ([6]; at 1 µM): -7.3%
- % of inhibition ([6]; at 5 µM): -18.8%
- % of inhibition [7]: 6.6%
- % of inhibition [8]: -8.2%
Compound: CC[C@@H]1[C@H](F)C(=O)N[C@@H]1COc1nccc2cc(C(N)=O)c(OC)cc12 [ZIMLOVISERTIB]

Compound: COCC(=O)NC/C=C/c1ccc2ncnc(Nc3ccc(Oc4ccc(C)nc4)c(C)c3)c2c1 [CP-724714]
- IC50 [9]: > 10 µM

Compound: Nc1cnc(N2CCc3cc(S(=O)(=O)Nc4c(F)cc(Cl)cc4F)cc(N4CCCC4=O)c32)nc1 [TP-020n]
- % of control [10]: 100%

Compound: C=CC(=O)Nc1ccc(C(=O)Nc2[nH]nc3c2CN(C(=O)N[C@H](CN(C)C)c2ccccc2)C3(C)C)cc1
- % of engagement [11]: -4.6%

Compound: N#Cc1cccc(-c2c[nH]c3ncnc(N4CCOCC4)c23)c1
- % of control [12]: 100%
- % of control [13]: 73%

From ChEMBL document CHEMBL5465560, “Selectivity Literature for EUbOPEN Chemogenomic Library” (2024)
